The values that follow come from patent US20240417408A1, “SMALL MOLECULE INHIBITORS OF KRAS G12C MUTANT” (MERCK SHARP & DOHME CORP., priority 2021, published 2024).

Experiment [1] addresses T1, biotinylated KRAS protein containing G12C/C51S/C80L/C118S mutations (SEQ ID NO: 3) (Homo sapiens, UniProt P01116, C118S/C51S/C80L/G12C).
T1 construct: biotin acceptor peptide (Avi-type, […]
Nature of the experiment: Test Example 4: SOS-catalyzed nucleotide exchange assay (TR-FRET). The format is biochemical. The following applies: 60-minute incubation with compound, then SOS and GTP, read-out: GNE IC50. As to the method: Test Example 4: Procedure for SOS-Catalyzed Nucleotide Exchange Assay
The SOS-catalyzed nucleotide exchange assay utilizes a preformed complex of recombinant biotinylated KRAS protein containing G12C/C51S/C80L/C118S mutations (SEQ ID NO: 3) (referred to as Biotinylated KRAS G12C protein hereafter), Bodipy-GDP, and Terbium-streptavidin. Compounds are added to this complex and then after a 60-minute incubation time the mixture is treated with SOS and unlabeled GTP. Small molecule inhibitors stabilize the Bodipy-GDP complex whereas the untreated protein rapidly exchanges Bodipy-GDP for unlabeled GTP resulting in reduced TR-FRET signal.
Biotinylated KRAS G12C protein is diluted to 2 μM in an EDTA buffer (20 mM HEPES, 50 mM sodium chloride, 10 mM EDTA, and 0.01% Tween) and incubated at room temperature for one hour. This mixture is then further diluted to 90 nM in an assay buffer (20 mM HEPES, 150 mM sodium chloride, 10 mM magnesium chloride, and 0.005% Tween) containing 15 nM of Terbium-Streptavidin (Invitrogen, catalog #PV3577) and 900 nM of Bodipy-GDP (Invitrogen, G22360) and incubated at room temperature for six hours. This solution is referred to as Biotinylated KRAS G12C stock solution and is then diluted to 9 nM in assay buffer to give the KRAS G12C assay solution.
Each test compound (10 mM stock in DMSO) is diluted in DMSO to make a 10-point, 3-fold dilution series in a 384-well low dead volume microplate (Labcyte, catalog #LP-0200). Once titrations are made, 10 nL of the diluted compounds is acoustically dispensed into a 384-well plate (Corning, catalog #3820) using an Echo 550 (Labcyte).
Each well receives 6 μL of Biotinylated KRAS G12C assay solution using a BioRAPTR (Beckman Coulter) and is incubated at room temperature for 60 minutes in a humidified chamber. Each well then receives 3 μL of 120 nM recombinant human SOS protein and 9 mM GTP (Sigma, G8877) in assay buffer and is incubated at room temperature for 60 minutes in a humidified chamber.
The time-resolved fluorescence resonance energy transfer signal of both plates is measured on an Envision (PerkinElmer) plate reader: Excitation filter=340 nm; emission 1=495 nm; emission 2=520 nm; dichroic mirror=D400/D505; delay time=100 μs. The signal of each well is determined as the ratio of the emission at 520 nm to that at 495 nm. Percent effect of each well is determined after normalization to control wells containing DMSO (no effect) or a saturating concentration of inhibitor (max effect). The apparent effect as a function of compound concentration is fit to a four-parameter logistic equation.
In general terms: Time-resolved FRET reads energy transfer from a long-lived donor to a nearby acceptor.

In experiment [2] the target is T2, Biotinylated KRAS G12C protein and GST-tagged Ras binding domain of c-RAF (Homo sapiens, UniProt P01116, C118S/C51S/C80L/G12C).
T2 construct: biotin acceptor peptide (Avi-type, […]
T2 sequence (P01116 with tags, fused parts or gaps isoform P01116-2 G12C/C51S/C80L/C118S): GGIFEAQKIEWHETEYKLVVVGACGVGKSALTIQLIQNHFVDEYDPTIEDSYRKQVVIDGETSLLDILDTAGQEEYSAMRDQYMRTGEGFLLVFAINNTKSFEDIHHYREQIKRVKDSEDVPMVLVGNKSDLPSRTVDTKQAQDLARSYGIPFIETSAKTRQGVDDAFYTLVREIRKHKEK
Nature of the experiment: Test Example 5: RAS:RAF-RBD binding assay (TR-FRET). Particulars: 30-minute incubation with compound, then GST-c-RAF RBD, read-out: cRaf IC50. As to the method:
Test Example 5: Procedure for RAS:RAF-RBD Binding Assay
The RAF-Ras binding domain (RBD) protein interaction assay utilizes Biotinylated KRAS G12C protein (SEQ ID NO: 3) and the GST-tagged Ras binding domain of c-RAF (residues 50-132) from Jena Biosciences). Compounds are added to KRAS and then after a 30-minute incubation time the RAF-RBD and detection antibodies are added. Small molecule inhibitors that block the interaction of c-RAF-RBD prevent generation of a TR-FRET signal.
Biotinylated KRAS G12C protein is diluted to 20 nM in assay buffer (20 mM HEPES pH 7.5, 150 mM sodium chloride, 10 mM magnesium chloride, and 0.01% Tween20).
Each test compound (10 mM stock in DMSO) is diluted in DMSO to make a 10-point, 3-fold dilution series in a 384-well low dead volume microplate (Labcyte, catalog #LP-0200). Once titrations are made, 50 nL of the diluted compounds is acoustically dispensed into 384-well plates (Corning, catalog #3820) using an Echo 655 (Labcyte).
Each well of the assay plate receives 5 μL of Biotinylated KRAS G12C assay solution and is incubated at room temperature for 30 minutes. Each well then receives 5 μL of 100 nM GST-c-RAF RBD protein and a 1:100 dilution of both anti-GST-d2 (Cisbio catalog #61GSTDLA) and Strepavidin-Tb cryptate (Cisbio catalog #610SATLA) in assay buffer and the plate is mixed and briefly centrifuged followed by a 60 minute incubation at room temperature.
The time-resolved fluorescence resonance energy transfer signal of both plates is measured on an Envision (PerkinElmer) plate reader: dichroic mirror=LANCE/DELFIA DUAL/Bias; Emission1=615 nm; Emission2=665 nm; delay time=[…]. The signal of each well is determined as the ratio of the emission at 665 nm to that at 615 nm. Percent effect of each well is determined after normalization to control wells containing DMSO (no effect) or a saturating concentration of inhibitor (max effect). The apparent effect as a function of compound concentration is fit to a four-parameter logistic equation.

Bounds are passed on as bounds.

T1 sequence (P01116 with tags, fused parts or gaps isoform P01116-2 G12C/C51S/C80L/C118S): as above

A word on the IC50: it is the concentration needed to halve the response being measured. `COC1CCN(C/C=C/C(=O)N2CCN(c3nc(OC[C@@]45CCCN4C[C@H](F)C5)nc4c3COC(c3c(F)cc(F)c5ccc(N)nc35)C4)C[C@@H]2CC#N)CC1` (single isomer, unassigned) [Example 23a]: the IC50 is 0.131 µM in experiment [1] and above 50 µM in experiment [2].
As to `COC1CCN(C/C=C/C(=O)N2CCN(c3nc(OC[C@@]45CCCN4C[C@H](F)C5)nc4c3COC(c3c(F)cc(F)c5ccc(N)nc35)C4)C[C@@H]2CC#N)CC1` (single isomer, unassigned) [Example 23b], the results for the IC50 in experiment [1] and in experiment [2] were 0.016 µM and 12.7 µM, respectively.
Take `C#Cc1cccc2cccc([C@@H]3Cc4nc(OC[C@@]56CCCN5C[C@H](F)C6)nc(N5CCN(C(=O)/C=C/CN6CCC(OC)CC6)[C@@H](CC#N)C5)c4CO3)c12` (single isomer, unassigned) [Example 25b]: the values for the IC50 in experiment [1] and in experiment [2] were 0.0016 µM and 0.074 µM, respectively.
For `COC1CCN(C/C=C/C(=O)N2CCN(c3nc(OC[C@@]45CCCN4C[C@H](F)C5)nc4c3COC(c3nc(N)cc(C)c3C(F)(F)F)C4)C[C@@H]2CC#N)CC1` (stereo partly drawn) [Example 22, 2-((2S)-4-(7-(6-amino-4-methyl-3-(trifluoromethyl)-pyridin-2-yl)-2-(((2R,7aS)-2-fluorotetrahydro-1H-pyr-rolizin-7a(5H)-yl)methoxy)-7,8-dihydro-5H-pyrano[4,3-d]pyrimidin-4-yl)-1-((E)-4-(4-methoxypiperidin-1-yl)-but-2-enoyl)piperazin-2-yl)-acetonitrile], in that order: 0.0056 µM and 0.122 µM.
`C#Cc1cccc2cccc(C3Cc4nc(OC[C@]5(CO)CC5(F)F)nc(N5CCN(C(=O)/C=C/CN6CCC(OC)CC6)[C@@H](CC#N)C5)c4CO3)c12` (stereo partly drawn) [Example 24, 2-((2S)-4-(2-(((R)-2,2-difluoro-1-(hydroxymethyl)cyclopropyl)methoxy)-7-(8-ethynylnaphthalen-1-yl)-7,8-dihydro-5H-pyrano[4,3-d]pyrimidin-4-yl)-1-((E)-4-(4-methoxypiperidin-1-yl)but-2-enoyl)piperazin-2-yl)acetonitrile]: the IC50 is 0.055 µM in experiment [1] and above 50 µM in experiment [2].
For `COC1CCN(C/C=C/C(=O)N2CCN(c3nc(OC[C@@]45CCCN4C[C@H](F)C5)nc4c3CCC3(CCCc5ccccc53)O4)C[C@@H]2CC#N)CC1` (stereo partly drawn) [Example 26, 2-((2S)-4-(2′-(((2R,7aS)-2-fluorotetrahydro-1H-pyrrolizin-7a(5H)-yl)methoxy)-3,4,5′,6′-tetrahydro-2H-spiro[naphthalene-1,7′-pyrano[2,3-d]pyrimidin]-4′-yl)-1-((E)-4-(4-methoxypiperidin-1-yl)but-2-enoyl)piperazin-2-yl)acetonitrile], in that order: 0.0808 µM and 48.8 µM.
